Results reported in patent US20050058745A1, “Use of Labiatae herb preparations for extending the flavor shelf life of malt beverages” (priority 2003, published 2005).
Entries after “also recorded” stand apart in the source; their conditions may differ.

Key:
[1] = Stability of RA in 9.5% tetrahydroisohumulone solution at pH 8; type: physicochemical; conditions: pH 8, room temperature
Method: A solution of rosmarinic acid in 9.5% tetrahydroisohumulone at pH 8 was prepared and allowed to stand at room temperature for an extended period of time to determine stability.

[2] = Trained panel flavor evaluation, commercial Pilsener, forced aging
Method: Separate solutions containing 2% pure rosmarinic acid or pure carnosic acid were prepared by weighing out 500 mg of each compound into separate volumetric flasks and diluting to 25 mL with 100% EtOH.
The beer used in this study was purchased at a local market with a production date of 36 days prior to use. Bottle additions were done as follows: • 1. A bottle of the beer was opened, struck sharply on the top to induce foaming (called “fobbing”), and crowned. The fobbing excludes air. The bottle was swirled and inverted. This sample was designated “No Additions.” • 2. Bottles of beer were opened and an aliquot of either the rosmarinic acid or carnosic acid solutions or a combination of each was added in an amount to give the correct addition rate. The bottle was then fobbed, as above and crowned. It was then swirled and inverted. The samples were designated appropriately to reflect the additive and concentration.
The bottles were placed in a heated room at 40±1° C. in the dark for varying amounts of time. After the allotted aging time, the bottles of beer were transferred to a dark refrigerator and stored at approximately 2° to 4° C. until they were analyzed. Additional bottles from the same code were kept unopened in 2° to 4° C. storage. These unopened samples from the same beer code were labeled “Fresh Control” used to provide fresh samples for the trained panel.
At the appropriate times, a trained 7- or 8-member panel evaluated the beers. In the first study panels, the fresh sample was not identified. Members rated beers for nine attributes that are characteristic for beer: Malt, Yeast, Estery, Hops, Sweet, Stale/Oxidized, Sour/Acid, Solvent (Chemical), and Bitterness. The panel never evaluated more than four beers at a session. The ratings are shown below.

| % Rosmarinic Acid in Solution ([1]; 0 days) [%] | % Rosmarinic Acid in Solution ([1]; 3 days) [%] | % Rosmarinic Acid in Solution ([1]; 5 days) [%] | % Rosmarinic Acid in Solution ([1]; 15 days) [%] | % Rosmarinic Acid in Solution ([1]; 38 days) [%] | % Rosmarinic Acid in Solution ([1]; 54 days) [%] | % Rosmarinic Acid in Solution ([1]; 86 days) [%] | Compound | stability in hop acid solution [1] | ranking (normalized sum of preference, 1 most preferred, 4 least preferred) ([2]; 5 ppm CA, 1 week 40° C.) | ranking (normalized sum of preference, 1 most preferred, 4 least preferred) ([2]; 10 ppm CA, 1 week 40° C.) | ranking (normalized sum of preference, 1 most preferred, 4 least preferred) ([2]; 20 ppm CA, 1 week 40° C.) | ranking (normalized sum of preference, 1 most preferred, 4 least preferred) ([2]; 20 ppm CA, 2 weeks 40° C.) |
| --- | --- | --- | --- | --- | --- | --- | --- | --- | --- | --- | --- | --- |
| 12.07 | 12.45 | 12.40 | 12.12 | 11.36 | 11.74 | 10.88 | O=C(/C=C/c1ccc(O)c(O)c1)O[C@H](Cc1ccc(O)c(O)c1)C(=O)O [RA, rosmarinic acid] | stable in this formulation for at least three months; also recorded: very stable in the hop acid solution | – | – | – | – |
| – | – | – | – | – | – | – | CC(C)c1cc2c(c(O)c1O)[C@@]1(C(=O)O)CCCC(C)(C)[C@@H]1CC2 [CA, carnosic acid] | – | 2.6 | 2.4 | 2.3 | 2.1 |
